Like-named read-outs stand apart in the source and are kept apart here.
Target: T1, HDM2 (Homo sapiens, UniProt Q00987)
T1 construct: Thioredoxin (N); made in house; host or cells: E. coli strain BL21(DE3)Rosetta
Assay: HDM2 FRET assay (inhibition of binding of FITC labeled p53-pocket peptide to HDM2)
Conditions: read-out: FRET IC50
Description: Methods: An HDM2 FRET assay was developed to assess the compounds' inhibitory activity towards binding of p53 protein. […] Protein was purified using Ni-affinity chromatography, followed by size exclusion chromatography using Superdex 75 26/60 column. […] The HDM2 assay buffer contained 1x Phosphate Buffered Saline (Invitrogen, Cat#14190), 0.01% BSA (Jackson ImmunoResearch, Cat# 001-000-162), 0.01% Tween-20. In the 1X assay buffer recombinant HDM2 protein, peptide and Lumi4-Tb Cryptate-conjugate mouse anti-6xHis antibody (cisbio, Cat#Tb61HISTLB) were added and transferred to ProxiPlate PLUS (PerkinElmer, Cat#6008269), containing compounds so that final DMSO concentration is 0.1% . Final concentrations of reagents in the assay wells are 0.5 nM HDM2, 0.25nM anti HIS (Tb label) antibody and 3nM peptide. […] Ratio of em520/em495 was used to calculate %inhibition and to obtain IC50 with 4-parameter logistic equation.
IC50 DETERMINATIONS: Dose-response curves were plotted from the inhibition data, from 10 point serial dilutions of inhibitory compounds. Concentration of compound was plotted against em520/Cem495 ratio signal. To generate IC50 values, the dose-response curves were fitted to a standard sigmoidal curve and IC50 values were derived by nonlinear regression analysis.

[1] = 0.5 nM HDM2 (residues 17 to 125), 3nM peptide, two hour incubation at room temperature

T1 sequence (Q00987 17-125): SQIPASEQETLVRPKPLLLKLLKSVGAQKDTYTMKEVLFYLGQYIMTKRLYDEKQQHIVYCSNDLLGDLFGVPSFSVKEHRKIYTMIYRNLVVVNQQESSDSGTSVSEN

C[C@@H](Nc1nc(-c2noc(=O)[nH]2)nc2nc(N3CCOC4CCCC43)n(C[C@H]3CC[C@H](C)CC3)c12)C1CCC1 (single isomer, unassigned) [Example 11.131]
IC50 (Table 11): 7.02 nM

C[C@@H](Nc1nc(-c2noc(=O)[nH]2)nc2nc(N3CCOC4CCCC43)n(C[C@H]3CC[C@H](C)CC3)c12)C1CCC1 (single isomer, unassigned) [Example 11.133]
IC50 (Table 11): 0.344 nM

C[C@@H](Nc1nc(-c2noc(=O)[nH]2)nc2nc(N3CCCC3c3ccccc3)n(C[C@H]3CC[C@H](C)CC3)c12)C1CCC1 (single isomer, unassigned) [Example 11.135]
IC50 (Table 11): 2.08 nM

C[C@@H](Nc1nc(-c2noc(=O)[nH]2)nc2nc(N3CCCC3c3ccccc3)n(C[C@H]3CC[C@H](C)CC3)c12)C1CCC1 (single isomer, unassigned) [Example 11.136]
IC50 (Table 11): 514 nM

C[C@@H](Nc1nc(-c2n[nH]c(=O)o2)nc2nc(N3CCOC4CCCC43)n(C[C@H]3CC[C@H](C)CC3)c12)C1CCC1 (single isomer, unassigned) [Example 11.140]
IC50 (Table 11): 9.87 nM

C[C@@H](Nc1nc(-c2n[nH]c(=O)o2)nc2nc(N3CCOC4CCCC43)n(C[C@H]3CC[C@H](C)CC3)c12)C1CCC1 (single isomer, unassigned) [Example 11.141]
IC50 (Table 11): 0.841 nM

C[C@@H](Nc1nc(-c2noc(=O)[nH]2)nc2nc(N3CCOC4CCCC43)n(C[C@H]3CC[C@H](C)CC3)c12)C1CCC1 (single isomer, unassigned) [Example 11.148]
IC50 (Table 11): 23.8 nM

C[C@@H](Nc1nc(-c2noc(=O)[nH]2)nc2nc(N3CCOC4CCCC43)n(C[C@H]3CC[C@H](C)CC3)c12)C1CCC1 (single isomer, unassigned) [Example 11.149]
IC50 (Table 11): 3.58 nM

COCC1COCCN1c1nc2nc(-c3noc(=O)[nH]3)nc(N[C@H](C)C3CCC3)c2n1C[C@H]1CC[C@H](C)CC1 (single isomer, unassigned) [Example 11.150]
IC50 (Table 11): 6.73 nM

COCC1COCCN1c1nc2nc(-c3noc(=O)[nH]3)nc(N[C@H](C)C3CCC3)c2n1C[C@H]1CC[C@H](C)CC1 (single isomer, unassigned) [Example 11.151]
IC50 (Table 11): 20.9 nM

C[C@@H](Nc1nc(-c2noc(=O)[nH]2)nc2nc(N3CCCC3C[S+](C)[O-])n(C[C@H]3CC[C@H](C)CC3)c12)C1CCC1 (single isomer, unassigned) [Example 11.154]
IC50 (Table 11): 70.7 nM

C[C@@H](Nc1nc(-c2noc(=O)[nH]2)nc2nc(N3CCCC3C[S+](C)[O-])n(C[C@H]3CC[C@H](C)CC3)c12)C1CCC1 (single isomer, unassigned) [Example 11.155]
IC50 (Table 11): 165 nM

C[C@@H](Nc1nc(-c2n[nH]c(=O)o2)nc2nc(N3CCO[C@H](C)[C@@H]3C)n(C[C@H]3CC[C@H](C)CC3)c12)C1CCC1 (single isomer, unassigned) [Example 11.157]
IC50 (Table 11): 47 nM

C[C@@H](Nc1nc(-c2n[nH]c(=O)o2)nc2nc(N3CCO[C@H](C)[C@@H]3C)n(C[C@H]3CC[C@H](C)CC3)c12)C1CCC1 (single isomer, unassigned) [Example 11.158]
IC50 (Table 11): 12.9 nM

C[C@@H](Nc1nc(-c2n[nH]c(=O)o2)nc2nc(N3CCO[C@H]4CCCC[C@H]43)n(C[C@H]3CC[C@H](C)CC3)c12)C1CCC1 (single isomer, unassigned) [Example 11.161]
IC50 (Table 11): 29.5 nM

C[C@@H](Nc1nc(-c2n[nH]c(=O)o2)nc2nc(N3CCO[C@H]4CCCC[C@H]43)n(C[C@H]3CC[C@H](C)CC3)c12)C1CCC1 (single isomer, unassigned) [Example 11.162]
IC50 (Table 11): 7.4 nM

C[C@@H](Nc1nc([S+](C)[O-])nc2nc(N3CCOC[C@H]3c3ccccc3)n(C[C@H]3CC[C@H](C)CC3)c12)C1CCC1 (single isomer, unassigned) [Example 14.2]
IC50 [1]: 10.5 nM

C[C@@H](Nc1nc([S+](C)[O-])nc2nc(N3CCOC[C@H]3c3ccccc3)n(C[C@H]3CC[C@H](C)CC3)c12)C1CCC1 (single isomer, unassigned) [Example 14.3]
IC50 [1]: 57.4 nM
